# Assay results as given in article PMC3222680 (PLoS ONE, 2011).
# Key:
# Format in all cases: cell-based
# αK24′A α-βWT GlyR = target: T1, αK24′A α-βWT GlyR (Homo sapiens, UniProt P23415+P48167, K304A)
# T1 construct: The α R218-Q219 and β R242-Q243 are also the joining sites for chimeras constructed between the ECD and TMD; expressed in transfected cells; host or cells: HEK293 (ATCC)
# Experimental: (§1) The human GlyR α1 and β subunit cDNAs were subcloned into the pcDNA3.1zeo+ (Invitrogen) or pGEMHE [44] plasmid vectors for expression in HEK293 cells or Xenopus oocytes, respectively. Site-directed mutagenesis and chimera construction were performed using the QuickChange (Stratagene, La Jolla, CA, USA) mutagenesis and multiple-template-based sequential PCR protocols, respectively.
# (§2) The effects of the hyperekplexia-mimicking mutations, K24′A, V25′A and Y27′A, were examined on GlyRs expressed in HEK293 cells (ATCC). Details of the HEK293 cell culture, GlyR expression and electrophysiological recording of the HEK293 cells are described elsewhere. Briefly, HEK293 cells were maintained in DMEM supplemented with 10% fetal bovine serum. Cells were transfected using a calcium phosphate precipitation protocol. When co-transfecting the α1 together with the β or any other chimera subunits, their respective cDNAs were combined in a ratio of 1∶10. In addition, the pEGFP-N1 (Clontech) was co-transfected to facilitate identifying the transfected cells. […] Cells were treated with external Ringer's solution and internal CsCl solution [30]. Cells were voltage-clamped at −40 mV. When the heteromeric GlyRs were expressed, the picrotoxin sensitivity was tested to confirm that the majority of receptors are heteromers, [30].
# (§3) Results are expressed as mean±standard error of the mean of three or more independent experiments. […] Statistical significance was determined using the Student's t-test.
# αK24′A βWT GlyR = target: T2, αK24′A βWT GlyR (Homo sapiens, UniProt P23415+P48167, K304A)
# T2 construct: expressed in transfected cells; host or cells: HEK293 (ATCC)
# Experimental: as §1, §2, §3
# αWT αB-βV25′A GlyR = target: T3, αWT αB-βV25′A GlyR (Homo sapiens, UniProt P23415+P48167, A165S/A240V/A277S/A80Q/E245R/G282P/H243T/I181K/I238V/I253M/I257A/I264V/I268L/K171T/L252M/M168L/M248V/M255V/M274P/N172L/P278A/Q254G/R241I/S259T/T179R/V177T/V323A/Y250F)
# T3 construct: expressed in transfected cells; host or cells: HEK293 (ATCC)
# Experimental: as §1, §2, §3
# αV25′A αB-βWT GlyR = target: T4, αV25′A αB-βWT GlyR (Homo sapiens, UniProt P23415+P48167, A80Q/V305A)
# T4 construct: expressed in transfected cells; host or cells: HEK293 (ATCC)
# Experimental: as §1, §2, §3
# αWT βY27′A GlyR = target: T5, αWT βY27′A GlyR (Homo sapiens, UniProt P23415+P48167, Y325A)
# T5 construct: expressed in transfected cells; host or cells: HEK293 (ATCC)
# Experimental: as §1, §2, §3
# αV25′A αT-βWT GlyR = target: T6, αV25′A αT-βWT GlyR (Homo sapiens, UniProt P23415+P48167, Q95A/V305A)
# T6 construct: expressed in transfected cells; host or cells: HEK293 (ATCC)
# Experimental: as §1, §2, §3
# αWT α-βV25′A GlyR = target: T7, αWT α-βV25′A GlyR (Homo sapiens, UniProt P23415+P48167, A277S/G282P/I253M/I257A/I264V/I268L/L252M/M248V/M255V/M274P/P278A/Q254G/S259T/V323A/Y250F)
# T7 construct: The α R218-Q219 and β R242-Q243 are also the joining sites for chimeras constructed between the ECD and TMD; expressed in transfected cells; host or cells: HEK293 (ATCC)
# Experimental: as §1, §2, §3
# αWT αT-βWT GlyR = target: T8, αWT αT-βWT GlyR (Homo sapiens, UniProt P23415+P48167, I259R/K198I/L185M/L189N/Q95A/R196T/R263E/S182A/T188K/T194V/T261H/V256I/V258A)
# T8 construct: expressed in transfected cells; host or cells: HEK293 (ATCC)
# Experimental: as §1, §2, §3
# αWT α-βWT GlyR = target: T9, αWT α-βWT GlyR (Homo sapiens, UniProt P23415+P48167, A277S/A316I/A325S/DEL290-297/G282P/I253M/I257A/I264V/I268L/I311L/I313V/INS301ECTTLAAE/L252M/L327V/M248V/M255V/M274P/M315L/P278A/Q254G/R299L/S259T/S324A/T286F/T287S/V317A/V322G/Y250F)
# T9 construct: The α R218-Q219 and β R242-Q243 are also the joining sites for chimeras constructed between the ECD and TMD; expressed in transfected cells; host or cells: HEK293 (ATCC)
# Experimental: as §1, §2, §3
# αWT βK24′A GlyR = target: T10, αWT βK24′A GlyR (Homo sapiens, UniProt P23415+P48167, K322A)
# T10 construct: expressed in transfected cells; host or cells: HEK293 (ATCC)
# Experimental: as §1, §2, §3
# αWT αB-βWT GlyR = target: T11, αWT αB-βWT GlyR (Homo sapiens, UniProt P23415+P48167, A165S/A240V/A277S/A316I/A325S/A80Q/DEL290-297/E245R/G282P/H243T/I181K/I238V/I253M/I257A/I264V/I268L/I311L/I313V/INS301ECTTLAAE/K171T/L252M/L327V/M168L/M248V/M255V/M274P/M315L/N172L/P278A/Q254G/R241I/R299L/S259T/S324A/T179R/T286F/T287S/V177T/V317A/V322G/Y250F)
# T11 construct: expressed in transfected cells; host or cells: HEK293 (ATCC)
# Experimental: as §1, §2, §3
# αV25′A α-βWT GlyR = target: T12, αV25′A α-βWT GlyR (Homo sapiens, UniProt P23415+P48167, V305A)
# T12 construct: The α R218-Q219 and β R242-Q243 are also the joining sites for chimeras constructed between the ECD and TMD; expressed in transfected cells; host or cells: HEK293 (ATCC)
# Experimental: as §1, §2, §3
# αR19′A βWT GlyR = target: T13, αR19′A βWT GlyR (Homo sapiens, UniProt P23415+P48167, R299A)
# T13 construct: expressed in transfected cells; host or cells: HEK293 (ATCC)
# Experimental: as §1, §2, §3
# αWT α-βK24′A GlyR = target: T14, αWT α-βK24′A GlyR (Homo sapiens, UniProt P23415+P48167, A277S/G282P/I253M/I257A/I264V/I268L/K322A/L252M/M248V/M255V/M274P/P278A/Q254G/S259T/Y250F)
# T14 construct: The α R218-Q219 and β R242-Q243 are also the joining sites for chimeras constructed between the ECD and TMD; expressed in transfected cells; host or cells: HEK293 (ATCC)
# Experimental: as §1, §2, §3
# αWT βV25′A GlyR = target: T15, αWT βV25′A GlyR (Homo sapiens, UniProt P23415+P48167, V323A)
# T15 construct: expressed in transfected cells; host or cells: HEK293 (ATCC)
# Experimental: as §1, §2, §3
# [1] = αK24′A α-βWT, HEK293, with glycine at EC50 of α1 homomer
# [2] = αK24′A βWT, HEK293, with glycine at EC50 of α1 homomer
# [3] = αWT αB-βV25′A, HEK293, with glycine at EC50 of α1 homomer
# [4] = αV25′A αB-βWT, HEK293, with glycine at EC50 of α1 homomer
# [5] = αWT βY27′A, HEK293, with glycine at EC50 of α1 homomer
# [6] = αV25′A αT-βWT, HEK293, with glycine at EC50 of α1 homomer
# [7] = αWT α-βV25′A, HEK293, with glycine at EC50 of α1 homomer
# [8] = αWT αT-βWT, HEK293, with glycine at EC50 of α1 homomer
# [9] = αWT α-βWT, HEK293, with glycine at EC50 of α1 homomer
# [10] = αWT βK24′A, HEK293, with glycine at EC50 of α1 homomer
# [11] = αWT αB-βWT, HEK293, with glycine at EC50 of α1 homomer
# [12] = αV25′A α-βWT, HEK293, with glycine at EC50 of α1 homomer
# [13] = αR19′A βWT, HEK293, with glycine at EC50 of α1 homomer
# [14] = αWT α-βK24′A, HEK293, with glycine at EC50 of α1 homomer
# [15] = αWT βV25′A, HEK293, with glycine at EC50 of α1 homomer
# T4 sequence (P23415 29-449 isoform P23415-2 V305A): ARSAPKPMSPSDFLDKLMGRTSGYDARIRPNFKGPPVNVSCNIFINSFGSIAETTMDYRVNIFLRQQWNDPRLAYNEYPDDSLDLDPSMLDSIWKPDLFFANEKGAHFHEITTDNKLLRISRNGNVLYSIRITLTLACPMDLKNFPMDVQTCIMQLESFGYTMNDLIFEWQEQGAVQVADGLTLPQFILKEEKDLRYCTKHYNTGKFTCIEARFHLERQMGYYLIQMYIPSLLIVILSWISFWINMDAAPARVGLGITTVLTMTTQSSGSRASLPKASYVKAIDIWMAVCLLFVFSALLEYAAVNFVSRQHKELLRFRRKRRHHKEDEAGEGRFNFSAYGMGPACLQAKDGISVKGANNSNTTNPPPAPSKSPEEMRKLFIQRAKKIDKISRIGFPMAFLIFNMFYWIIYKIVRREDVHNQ
# T4 sequence (P23415+P48167 fused with the stated changes): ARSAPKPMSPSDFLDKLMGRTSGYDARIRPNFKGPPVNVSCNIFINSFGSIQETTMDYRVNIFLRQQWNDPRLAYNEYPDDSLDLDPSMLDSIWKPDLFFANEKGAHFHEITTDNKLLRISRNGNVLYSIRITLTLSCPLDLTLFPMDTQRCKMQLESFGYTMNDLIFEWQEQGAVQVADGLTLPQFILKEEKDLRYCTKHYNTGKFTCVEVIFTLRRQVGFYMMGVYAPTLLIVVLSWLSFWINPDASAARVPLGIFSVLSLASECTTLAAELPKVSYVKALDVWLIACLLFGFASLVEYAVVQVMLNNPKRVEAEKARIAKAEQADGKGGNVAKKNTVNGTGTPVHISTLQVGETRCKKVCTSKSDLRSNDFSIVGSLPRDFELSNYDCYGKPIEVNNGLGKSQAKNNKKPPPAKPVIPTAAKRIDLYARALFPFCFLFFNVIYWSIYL
# T12 sequence (P23415 29-449 isoform P23415-2 V305A): as the sequence (P23415 29-449 isoform P23415-2 V305A) above
# T12 sequence (P23415+P48167 fused with the stated changes): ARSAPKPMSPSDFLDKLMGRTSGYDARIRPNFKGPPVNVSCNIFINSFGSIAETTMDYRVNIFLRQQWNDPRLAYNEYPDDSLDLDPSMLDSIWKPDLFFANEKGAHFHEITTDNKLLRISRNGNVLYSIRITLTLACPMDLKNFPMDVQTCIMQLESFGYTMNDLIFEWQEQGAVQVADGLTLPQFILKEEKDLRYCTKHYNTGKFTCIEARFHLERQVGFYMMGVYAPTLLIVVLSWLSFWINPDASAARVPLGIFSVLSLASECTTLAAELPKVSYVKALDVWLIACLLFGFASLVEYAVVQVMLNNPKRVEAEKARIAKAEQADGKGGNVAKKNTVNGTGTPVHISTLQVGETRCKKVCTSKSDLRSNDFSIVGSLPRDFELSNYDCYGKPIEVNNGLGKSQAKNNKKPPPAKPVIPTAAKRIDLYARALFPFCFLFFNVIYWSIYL
# T6 sequence (P23415 29-449 isoform P23415-2 V305A): as the sequence (P23415 29-449 isoform P23415-2 V305A) above
# T6 sequence (P48167 23-497 Q95A/S182A/L185M/T188K/L189N/T194V/R196T/K198I/V256I/V258A/I259R/T261H/R263E): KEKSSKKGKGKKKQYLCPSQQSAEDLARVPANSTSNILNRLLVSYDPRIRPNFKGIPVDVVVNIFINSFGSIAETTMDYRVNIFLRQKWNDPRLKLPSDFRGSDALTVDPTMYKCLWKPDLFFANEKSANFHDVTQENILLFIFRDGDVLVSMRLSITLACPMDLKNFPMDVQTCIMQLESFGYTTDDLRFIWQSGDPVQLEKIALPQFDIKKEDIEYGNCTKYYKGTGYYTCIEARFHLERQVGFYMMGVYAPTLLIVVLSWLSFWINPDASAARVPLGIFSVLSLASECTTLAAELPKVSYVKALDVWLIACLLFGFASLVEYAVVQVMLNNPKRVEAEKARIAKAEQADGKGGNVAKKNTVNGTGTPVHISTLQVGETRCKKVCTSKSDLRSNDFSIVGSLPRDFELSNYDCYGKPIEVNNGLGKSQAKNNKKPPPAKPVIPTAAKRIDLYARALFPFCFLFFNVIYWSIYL
# T13 sequence (P23415 29-449 isoform P23415-2 R299A limits assumed): as the sequence (P23415 29-449 isoform P23415-2 V305A) above, with R271A, A277V counted along it
# T13 sequence (P48167 23-497): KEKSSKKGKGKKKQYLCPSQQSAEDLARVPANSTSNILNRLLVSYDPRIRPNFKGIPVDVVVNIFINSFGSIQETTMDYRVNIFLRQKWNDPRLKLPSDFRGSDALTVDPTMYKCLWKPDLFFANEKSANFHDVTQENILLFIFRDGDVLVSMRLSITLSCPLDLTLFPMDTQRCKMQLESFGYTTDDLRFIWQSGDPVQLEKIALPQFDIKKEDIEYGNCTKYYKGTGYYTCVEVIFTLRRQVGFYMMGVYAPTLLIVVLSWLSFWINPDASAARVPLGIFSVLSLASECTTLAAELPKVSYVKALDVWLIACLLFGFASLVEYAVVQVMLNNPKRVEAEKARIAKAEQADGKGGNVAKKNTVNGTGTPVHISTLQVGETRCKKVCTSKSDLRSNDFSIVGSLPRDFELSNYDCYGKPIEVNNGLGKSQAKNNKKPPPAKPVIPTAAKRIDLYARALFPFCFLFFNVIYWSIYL
# T9 sequence (P23415 29-449 isoform P23415-2, stated change not applied): as the sequence (P23415 29-449 isoform P23415-2 V305A) above, with A277V counted along it
compound,measurement,setting,value
NCC(=O)O [glycine],Imax,αK24′A α-βWT GlyR,7.2±0.9 nA
same,nH,αK24′A α-βWT GlyR,1.0±0.1
same,Imax,αK24′A βWT GlyR,6.3±1.1 nA
same,nH,αK24′A βWT GlyR,1.8±0.2
same,Imax,αWT αB-βV25′A GlyR,9.8±4.9 nA
same,nH,αWT αB-βV25′A GlyR,2.2±0.3
same,Imax,αV25′A αB-βWT GlyR,5.5±0.9 nA
same,nH,αV25′A αB-βWT GlyR,1.1±0.0
same,Imax,αWT βY27′A GlyR,8.0±1.3 nA
same,nH,αWT βY27′A GlyR,2.4±0.1
same,Imax,αV25′A αT-βWT GlyR,6.0±1.7 nA
same,nH,αV25′A αT-βWT GlyR,1.4±0.2
same,Imax,αWT α-βV25′A GlyR,7.6±1.7 nA
same,nH,αWT α-βV25′A GlyR,1.3±0.1
same,Imax,αWT αT-βWT GlyR,12.0±1.6 nA
same,nH,αWT αT-βWT GlyR,2.0±0.1
same,Imax,αWT α-βWT GlyR,4.3±0.7 nA
same,nH,αWT α-βWT GlyR,1.3±0.3
same,Imax,αWT βK24′A GlyR,5.4±1.0 nA
same,nH,αWT βK24′A GlyR,1.5±0.3
same,Imax,αWT αB-βWT GlyR,8.6±1.6 nA
same,nH,αWT αB-βWT GlyR,1.8±0.4
same,Imax,αV25′A α-βWT GlyR,8.2±1.4 nA
same,nH,αV25′A α-βWT GlyR,0.92±0.04
same,Imax,αR19′A βWT GlyR,3.9±1.3 nA
same,nH,αR19′A βWT GlyR,2.5±0.3
same,Imax,αWT α-βK24′A GlyR,8.0±1.8 nA
same,nH,αWT α-βK24′A GlyR,1.5±0.2
same,Imax,αWT βV25′A GlyR,7.7±0.8 nA
same,nH,αWT βV25′A GlyR,2.0±0.6
picrotoxin [PTX],10uM PTX inhibition (%),αK24′A α-βWT GlyR; [1],4.8±0.7%
same,100uM PTX inhibition (%),αK24′A α-βWT GlyR; [1],26±5%
same,10uM PTX inhibition (%),αK24′A βWT GlyR; [2],2.2±1.1%
same,100uM PTX inhibition (%),αK24′A βWT GlyR; [2],20±5%
same,10uM PTX inhibition (%),αWT αB-βV25′A GlyR; [3],8.9±2.4%
same,100uM PTX inhibition (%),αWT αB-βV25′A GlyR; [3],43±3%
same,10uM PTX inhibition (%),αV25′A αB-βWT GlyR; [4],4.8±0.6%
same,100uM PTX inhibition (%),αV25′A αB-βWT GlyR; [4],27±2%
same,10uM PTX inhibition (%),αWT βY27′A GlyR; [5],6.3±0.3%
same,100uM PTX inhibition (%),αWT βY27′A GlyR; [5],42±2%
same,10uM PTX inhibition (%),αV25′A αT-βWT GlyR; [6],3.7±1.6%
same,100uM PTX inhibition (%),αV25′A αT-βWT GlyR; [6],25±4%
same,10uM PTX inhibition (%),αWT α-βV25′A GlyR; [7],3.0±1.3%
same,100uM PTX inhibition (%),αWT α-βV25′A GlyR; [7],34±4%
same,10uM PTX inhibition (%),αWT αT-βWT GlyR; [8],3.2±0.6%
same,100uM PTX inhibition (%),αWT αT-βWT GlyR; [8],25±6%
same,10uM PTX inhibition (%),αWT α-βWT GlyR; [9],3.8±2.2%
same,100uM PTX inhibition (%),αWT α-βWT GlyR; [9],25±2%
same,10uM PTX inhibition (%),αWT βK24′A GlyR; [10],6.0±1.2%
same,100uM PTX inhibition (%),αWT βK24′A GlyR; [10],35±3%
same,10uM PTX inhibition (%),αWT αB-βWT GlyR; [11],4.8±0.9%
same,100uM PTX inhibition (%),αWT αB-βWT GlyR; [11],33±4%
same,10uM PTX inhibition (%),αV25′A α-βWT GlyR; [12],2.9±0.8%
same,100uM PTX inhibition (%),αV25′A α-βWT GlyR; [12],21±5%
same,10uM PTX inhibition (%),αR19′A βWT GlyR; [13],2.8±2.1%
same,100uM PTX inhibition (%),αR19′A βWT GlyR; [13],20±9%
same,10uM PTX inhibition (%),αWT α-βK24′A GlyR; [14],5.6±1.0%
same,100uM PTX inhibition (%),αWT α-βK24′A GlyR; [14],35±4%
same,10uM PTX inhibition (%),αWT βV25′A GlyR; [15],5.7±2.2%
same,100uM PTX inhibition (%),αWT βV25′A GlyR; [15],36±7%
